From patent publication US5837687A, “Azapeptide derivative” (Fujirebio Inc., priority 1994, dated 1998)
Read-outs that look alike come from different tables or passages of the source.

Experiments:
[1] = molecular target: T1, NKA receptor (Mesocricetus auratus, UniProt P51144); test: Activity to constriction of hamster respiratory tracts caused by NKA (isolated tissue, tension); format: cell-based
T1 construct: from tissue; host or cells: hamster respiratory tract (trachea) ring specimens
T1 sequence (P51144 1-384): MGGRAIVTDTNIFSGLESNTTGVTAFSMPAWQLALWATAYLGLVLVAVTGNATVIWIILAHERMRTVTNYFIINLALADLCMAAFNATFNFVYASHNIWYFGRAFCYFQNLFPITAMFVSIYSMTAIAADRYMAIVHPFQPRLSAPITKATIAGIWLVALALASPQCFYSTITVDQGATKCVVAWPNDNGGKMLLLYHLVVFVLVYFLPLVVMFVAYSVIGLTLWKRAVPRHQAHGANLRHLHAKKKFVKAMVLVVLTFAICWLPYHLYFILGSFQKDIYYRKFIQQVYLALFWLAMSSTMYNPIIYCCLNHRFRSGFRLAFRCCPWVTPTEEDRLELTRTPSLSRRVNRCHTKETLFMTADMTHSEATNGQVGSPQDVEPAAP
Procedure: The activity of the azapeptide derivative of the present invention to a NKA receptor was evaluated by the following method.
(1) Activity to constriction of hamster respiratory tracts caused by NKA
Respiratory tracts were taken out from male Syrian strain Golden hamsters having a body weight of 100 to 180 g, and cyclic specimens having a width of 3 to 6 mm were prepared. The specimens were incubated at 37° C. and suspended by loading a static tension of 0.5 g, in a reaction tank charged with 15 ml of a Tyrode solution (137 mM of NaCl, 2.7 mM of KCl, 1.8 mM of CaCl2, 1.02 mM of MgCl2, 11.9 mM of NaHCO3, 0.42 mM of NaH2 PO4 and 5.5 mM of glucose) in which 95% O2 -5% CO2 had been passed.
The compound to be tested was charged into the reaction tank and maintained for 5 minutes. 1×10^-7 M of NKA was charged into the reaction tank, and tension caused thereby was recorded. The examined effect of the tested compound as an antagonist was shown by IC50.

[2] = molecular target: T2, NKA receptor (Cavia porcellus, UniProt Q64077); test: Activity to constriction of guinea pig respiratory tracts caused by NKA (in vivo, excess air amount); details: anesthetized guinea pigs, cervical vein; for Controlling rate (%) 1 min: 2 nmol/kg NKA given 1 min after test compound; for Controlling rate (%) 15 min: 2 nmol/kg NKA given 15 min after test compound
T2 construct: Male Hartley strain guinea pigs having a body weight of 350 to 500 g were anesthetized; from tissue; host or cells: whole anaesthetized guinea pig (airways, in vivo)
T2 sequence (Q64077 1-402): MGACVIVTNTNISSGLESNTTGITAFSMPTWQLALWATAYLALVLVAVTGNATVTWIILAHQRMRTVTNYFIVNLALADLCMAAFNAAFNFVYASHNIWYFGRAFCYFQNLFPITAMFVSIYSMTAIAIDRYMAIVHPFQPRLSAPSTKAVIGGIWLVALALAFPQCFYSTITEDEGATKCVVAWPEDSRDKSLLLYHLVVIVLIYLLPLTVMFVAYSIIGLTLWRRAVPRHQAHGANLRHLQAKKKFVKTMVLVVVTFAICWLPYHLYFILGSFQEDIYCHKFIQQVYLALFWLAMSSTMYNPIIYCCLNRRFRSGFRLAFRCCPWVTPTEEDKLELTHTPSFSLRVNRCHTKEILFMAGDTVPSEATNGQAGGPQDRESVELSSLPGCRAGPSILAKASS
Procedure: (2) Activity to constriction of guinea pig respiratory tracts caused by NKA
Male Hartley strain guinea pigs having a body weight of 350 to 500 g were anesthetized by administering 1.5 g/kg of urethane into abdominal cavities thereof. Cannulas made of polyethylene were inserted into cervical veins and respiratory tracts. From the cervical vein cannulas, 1 mg of gallamine was administered to stop respiration. The respiratory tract cannulas were connected to a respirator, and artificial respiration was carried out with an air-supplying amount at one time of 4 to 6 ml and an air-supplying frequency of 70 times/min. Side branches of the respiratory tract cannulas were introduced into a water tank, and a hydraulic pressure of 8 cm H2 O was loaded. Excess air amounts exceeding the above hydraulic pressure and discharged were measured. From the cervical vein cannulas, 2 nmol/kg of NKA was administered, each compound to be tested was administered after 15 minutes, and further 2 nmol/kg of NKA was administered after 1, 15, 30, 45 and 60 minutes, respectively. The increased amounts of excess air after the respective NKA administrations were measured, and percentages relative to the increased amounts of excess air when the respiratory tracts were completely closed were determined, which were defined as respiratory constriction rates. The decreased ratios of the respiratory constriction rates after administering the compounds to be tested to the respiratory constriction rates before administering the compounds to be tested were shown by percentages, which were defined as controlling rates. The controlling rates were regarded as an effect of the compound to be tested as an antagonist.

## NC(=O)C[C@H](NC(=O)OCc1ccccc1)C(=O)N[C@@H](Cc1c[nH]c2ccccc12)C(=O)NN(Cc1ccccc1)C(=O)NCCOCc1ccccc1 [Example 12, Z-Asn-Trp-AzPhe-NH(CH2)2 OCH2 Ph]
[1]
  IC50: 0.0045 µM
[2]
  Controlling rate (%) 1 min: 19.5%
  Controlling rate (%) 15 min: 73.2%
[2]; 2 nmol/kg NKA given 30 min after test compound
  Controlling rate (%) 30 min: 62.2%
[2]; 2 nmol/kg NKA given 45 min after test compound
  Controlling rate (%) 45 min: 54.8%
[2]; 2 nmol/kg NKA given 60 min after test compound
  Controlling rate (%) 60 min: 51.7%

## Ac-LDQWFG-NH2 [Reference example 13, Ac-Leu-Asp-Gln-Trp-Phe-Gly-NH2, reference compound]
[1]; mole concentration giving 50% control of tension caused by 1×10^-7 M NKA, compound maintained 5 minutes, hamster respiratory tract specimens, read-out: IC50
  IC50: 0.022 µM
[2]
  Controlling rate (%) 1 min: 11.9%
  Controlling rate (%) 15 min: 3.9%

## CC(C)(C)OC(=O)N[C@@H](CCCNC(=N)N[N+](=O)[O-])C(=O)N[C@@H](Cc1c[nH]c2ccccc12)C(=O)NN(Cc1ccccc1)C(=O)NCCOCc1ccccc1 [Example 15, Boc-Arg(NO2)-Trp-AzPhe-NH(CH2)2 OCH2 Ph]
[1]
  IC50: 0.035 µM

## NC(=O)CC[C@H](NC(=O)C1CCCC1)C(=O)N[C@@H](Cc1c[nH]c2ccccc12)C(=O)NN(Cc1ccccc1)C(=O)NCCOCc1ccccc1 [Example 5, cyPent-CO-Gln-Trp-AzPhe-NH(CH2)2 OCH2 Ph]
[1]
  IC50: 0.0022 µM

## CC(C)(C)OC(=O)N[C@@H](CC(=O)OCc1ccccc1)C(=O)N[C@@H](Cc1c[nH]c2ccccc12)C(=O)NN(Cc1ccccc1)C(=O)NCCOCc1ccccc1 [Example 16 (1), Boc-Asp(OBzl)-Trp-AzPhe-NH(CH2)2 OCH2 Ph]
[1]
  IC50: 0.013 µM

## CC(C)(C)OC(=O)N[C@@H](CC(=O)OCc1ccccc1)C(=O)N[C@@H](CCC(N)=O)C(=O)N[C@@H](Cc1c[nH]c2ccccc12)C(=O)NN(Cc1ccccc1)C(N)=O [Example 1 (3), Boc-Asp(OBzl)-Gln-Trp-AzPhe-NH2]
[1]
  IC50: 0.045 µM

## Cc1ccc(C)c(CN(NC(=O)[C@H](Cc2c[nH]c3ccccc23)NC(=O)[C@H](CCC(N)=O)NC(=O)NC(C)(C)C)C(=O)NCCOCc2ccccc2)c1 [Example 38 (3), t-Bu-NHCO-Gln-Trp-AzPhe(2,5-diMe)-NH(CH2)2 OCH2 Ph]
[1]
  IC50: 0.00068 µM

## CC(C)(C)OC(=O)N[C@@H](CCCN)C(=O)N[C@@H](Cc1c[nH]c2ccccc12)C(=O)NN(Cc1ccccc1)C(=O)NCCOCc1ccccc1 [Example 13 (2), Boc-Orn-Trp-AzPhe-NH(CH2)2 OCH2 Ph]
[1]
  IC50: 0.078 µM

## CC(C)(C)NC(=O)N[C@@H](CCC(N)=O)C(=O)N[C@@H](Cc1c[nH]c2ccccc12)C(=O)NN(Cc1ccccc1)C(=O)NCCOCc1ccc2ccccc2c1 [Example 41 (3), t-Bu-NHCO-Gln-Trp-AzPhe-NH(CH2)2 O-(2-naphthylmethyl)]
[1]
  IC50: 0.02 µM

## Cc1ccc(CN(NC(=O)[C@H](Cc2c[nH]c3ccccc23)NC(=O)[C@H](CCC(N)=O)NC(=O)NC(C)(C)C)C(=O)NCCOCc2ccccc2)cc1 [Example 35 (3), t-Bu-NHCO-Gln-Trp-AzPhe(4-Me)-NH(CH2)2 OCH2 Ph]
[1]
  IC50: 0.00082 µM

## CC(C)(C)OC(=O)N[C@@H](CC(=O)OCc1ccccc1)C(=O)N[C@@H](CCC(N)=O)C(=O)N[C@@H](Cc1c[nH]c2ccccc12)C(=O)NN(Cc1ccccc1)C(=O)NCCOCc1ccccc1 [Example 2 (3), Boc-Asp(OBzl)-Gln-Trp-AzPhe-NH(CH2)2 OCH2 Ph]
[1]
  IC50: 0.0019 µM

## CSCC[C@H](NC(=O)OC(C)(C)C)C(=O)N[C@@H](Cc1c[nH]c2ccccc12)C(=O)NN(Cc1ccccc1)C(=O)NCCOCc1ccccc1 [Example 11, Boc-Met-Trp-AzPhe-NH(CH2)2 OCH2 Ph]
[1]
  IC50: 0.0089 µM

## CC(C)CCNC(=O)N[C@@H](CCC(N)=O)C(=O)N[C@@H](Cc1c[nH]c2ccccc12)C(=O)NN(Cc1ccccc1)C(=O)NCCOCc1ccccc1 [Example 7, i-Pent-NHCO-Gln-Trp-AzPhe-NH(CH2)2OCH2 Ph]
[1]
  IC50: 0.0005 µM

## CC(C)(C)OC(=O)N[C@@H](Cc1c[nH]c2ccccc12)C(=O)NN(Cc1ccccc1)C(=O)NCCOCc1ccccc1 [Example 2 (1), Boc-Trp-AzPhe-NH(CH2)2 OCH2 Ph]
[1]
  IC50: 0.31 µM

## CC(C)(C)OC(=O)N[C@@H](CCCNC(N)=O)C(=O)N[C@@H](Cc1c[nH]c2ccccc12)C(=O)NN(Cc1ccccc1)C(=O)NCCOCc1ccccc1 [Example 14, Boc-Cit-Trp-AzPhe-NH(CH2)2 OCH2 Ph]
[1]
  IC50: 0.024 µM

## CC(C)(C)OC(=O)N[C@@H](CC(=O)OCc1ccccc1)C(=O)N[C@@H](CCC(N)=O)C(=O)N[C@@H](Cc1c[nH]c2ccccc12)C(=O)NN(Cc1ccccc1)C(=O)NCc1ccc(F)cc1 [Example 17 (3), Boc-Asp(OBzl)-Gln-Trp-AzPhe-NHCH2 Ph(4-F)]
[1]
  IC50: 0.0042 µM

## CC(C)(C)NC(=O)N[C@@H](CCC(N)=O)C(=O)N[C@@H](Cc1c[nH]c2ccccc12)C(=O)NN(Cc1ccccc1)C(=O)NCCOCc1ccccc1 [Example 6, t-Bu-NHCO-Gln-Trp-AzPhe-NH(CH2)2 OCH2 Ph]
[1]
  IC50: 0.0006 µM

## CC(C)(C)OC(=O)N[C@@H](CC(=O)OCc1ccccc1)C(=O)N[C@@H](CCC(N)=O)C(=O)N[C@@H](Cc1c[nH]c2ccccc12)C(=O)NN(Cc1ccccc1)C(=O)NCCc1ccccc1 [Example 19 (3), Boc-Asp(OBzl)-Gln-Trp-AzPhe-NH(CH2)2 Ph]
[1]
  IC50: 0.0053 µM

## CNC(=O)N(Cc1ccccc1)NC(=O)[C@H](Cc1c[nH]c2ccccc12)NC(=O)[C@H](CCC(N)=O)NC(=O)[C@H](CC(=O)OCc1ccccc1)NC(=O)OC(C)(C)C [Example 23 (3), Boc-Asp(OBzl)-Gln-Trp-AzPhe-NHCH3]
[1]
  IC50: 0.078 µM

## CC(C)(C)OC(=O)N[C@@H](CC(=O)O)C(=O)N[C@@H](Cc1c[nH]c2ccccc12)C(=O)NN(Cc1ccccc1)C(=O)NCCOCc1ccccc1 [Example 16 (2), Boc-Asp-Trp-AzPhe-NH(CH2)2 OCH2 Ph]
[1]
  IC50: 0.013 µM

## NC(=O)CC[C@H](NC(=O)NC1CCCC1)C(=O)N[C@@H](Cc1c[nH]c2ccccc12)C(=O)NN(Cc1ccccc1)C(=O)NCCOCc1ccccc1 [Example 8, cyPent-NHCO-Gln-Trp-AzPhe-NH (CH2)2 OCH2 Ph]
[1]
  IC50: 0.0007 µM

## CC(C)CNC(=O)N(Cc1ccccc1)NC(=O)[C@H](Cc1c[nH]c2ccccc12)NC(=O)[C@H](CCC(N)=O)NC(=O)[C@H](CC(=O)OCc1ccccc1)NC(=O)OC(C)(C)C [Example 25 (3), Boc-Asp(OBzl)-Gln-Trp-AzPhe-NHCH2 CH(CH3)2]
[1]
  IC50: 0.034 µM

## CC(C)(C)OC(=O)N[C@@H](CCCNC(=O)OCc1ccccc1)C(=O)N[C@@H](Cc1c[nH]c2ccccc12)C(=O)NN(Cc1ccccc1)C(=O)NCCOCc1ccccc1 [Example 13 (1), Boc-Orn(Z)-Trp-AzPhe-NH (CH2)2 OCH2 Ph]
[1]
  IC50: 0.08 µM
